Results on one compound are retold here after patent US20200031866A1, “PEPTIDE INHIBITORS OF SODIUM CHANNELS” (SPYRYX BIOSCIENCES, INC., priority 2016, published 2020).

Assay [1] has as its target T1, epithelial sodium channels (Homo sapiens, UniProt P37088+P51168+P51170).
T1 construct: human bronchial epithelial cultures from CF patients; endogenous in cells; host or cells: human bronchial epithelial cultures from CF patients
T1 sequence (P37088 1-669): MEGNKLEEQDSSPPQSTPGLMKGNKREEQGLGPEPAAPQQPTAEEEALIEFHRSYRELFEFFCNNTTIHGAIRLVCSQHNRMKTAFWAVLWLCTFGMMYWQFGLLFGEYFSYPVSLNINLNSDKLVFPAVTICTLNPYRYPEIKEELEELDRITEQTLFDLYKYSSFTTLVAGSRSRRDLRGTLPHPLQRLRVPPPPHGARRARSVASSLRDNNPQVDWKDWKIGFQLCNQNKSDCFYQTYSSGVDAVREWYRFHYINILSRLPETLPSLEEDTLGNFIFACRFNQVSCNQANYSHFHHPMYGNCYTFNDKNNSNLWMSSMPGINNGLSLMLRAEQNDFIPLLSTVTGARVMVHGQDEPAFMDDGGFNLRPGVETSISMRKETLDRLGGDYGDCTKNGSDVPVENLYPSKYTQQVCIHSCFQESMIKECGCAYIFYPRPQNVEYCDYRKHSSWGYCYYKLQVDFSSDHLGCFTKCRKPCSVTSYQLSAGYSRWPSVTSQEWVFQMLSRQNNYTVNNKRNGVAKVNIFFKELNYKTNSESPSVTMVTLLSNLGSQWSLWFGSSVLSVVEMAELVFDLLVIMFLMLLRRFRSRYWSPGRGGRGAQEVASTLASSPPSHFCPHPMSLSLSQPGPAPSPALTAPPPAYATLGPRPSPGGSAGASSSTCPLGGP
T1 sequence (P51168 1-640): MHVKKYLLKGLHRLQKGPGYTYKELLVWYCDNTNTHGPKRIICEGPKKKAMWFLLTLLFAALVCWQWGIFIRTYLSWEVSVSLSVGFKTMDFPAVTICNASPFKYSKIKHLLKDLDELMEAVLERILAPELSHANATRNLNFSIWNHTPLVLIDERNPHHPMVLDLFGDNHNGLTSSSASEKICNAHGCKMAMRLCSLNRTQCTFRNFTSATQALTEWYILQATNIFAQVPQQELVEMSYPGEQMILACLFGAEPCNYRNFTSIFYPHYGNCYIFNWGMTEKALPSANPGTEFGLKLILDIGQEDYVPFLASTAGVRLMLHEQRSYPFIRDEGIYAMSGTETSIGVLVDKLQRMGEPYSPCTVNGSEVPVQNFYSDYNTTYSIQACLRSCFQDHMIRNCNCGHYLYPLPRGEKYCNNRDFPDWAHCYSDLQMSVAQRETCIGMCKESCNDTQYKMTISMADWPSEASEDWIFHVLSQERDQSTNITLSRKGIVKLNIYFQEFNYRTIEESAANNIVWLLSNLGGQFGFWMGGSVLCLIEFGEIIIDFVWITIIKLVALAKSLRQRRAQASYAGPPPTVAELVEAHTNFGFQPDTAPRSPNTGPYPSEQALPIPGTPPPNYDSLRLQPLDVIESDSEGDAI
T1 sequence (P51170 1-649): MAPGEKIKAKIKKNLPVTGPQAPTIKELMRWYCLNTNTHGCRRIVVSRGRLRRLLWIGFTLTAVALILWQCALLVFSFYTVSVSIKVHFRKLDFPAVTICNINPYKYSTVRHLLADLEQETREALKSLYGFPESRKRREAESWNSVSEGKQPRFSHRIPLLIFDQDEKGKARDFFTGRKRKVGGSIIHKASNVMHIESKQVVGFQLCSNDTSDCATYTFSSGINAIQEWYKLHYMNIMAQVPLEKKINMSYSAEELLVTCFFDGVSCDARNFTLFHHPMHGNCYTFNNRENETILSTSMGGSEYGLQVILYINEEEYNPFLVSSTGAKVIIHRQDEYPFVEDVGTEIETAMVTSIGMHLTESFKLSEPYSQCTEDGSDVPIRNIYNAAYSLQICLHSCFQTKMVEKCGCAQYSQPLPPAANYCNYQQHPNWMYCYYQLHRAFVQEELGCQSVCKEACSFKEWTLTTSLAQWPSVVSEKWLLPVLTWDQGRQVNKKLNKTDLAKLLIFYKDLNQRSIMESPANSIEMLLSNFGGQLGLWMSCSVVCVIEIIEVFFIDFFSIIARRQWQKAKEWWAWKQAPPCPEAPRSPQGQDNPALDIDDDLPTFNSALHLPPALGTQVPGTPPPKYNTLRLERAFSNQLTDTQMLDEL
In words: Airway surface liquid hyper absorption in human bronchial epithelial cultures from CF patients. The class given is cell-based.

Assay [2] has as its system βENaC-Tg mice. It is filed as in vivo. The text has this:
Like CF patients, βENaC-Tg mice are disease free at birth, but soon develop obstructive lung disease (Zhou, Z., et al. Am J Respir Crit Care Med 178, 1245-1256 (2008)). C57BL:FVB and C57BL:C3H mixed strains have 90% and 50% mortality, respectively, and the reproducibility of the disease on these backgrounds is sufficiently high that reliable data are produced with n of about 8-10 animals/group. Furthermore, the βENaC-Tg mouse responds to therapeutic interventions in a fashion similar to CF/COPD in humans, and the development of lung disease can be prevented following inhibition of lung disease at birth (Livraghi, A., et al. J Immunol 182, 4357-4367 (2009)). S18-derived peptides or vehicle were dosed one to three times a day by intranasal instillation (1 μl/g body weight) for 14 days in parallel cohorts of mice. Mice were weighed daily and, if a diuretic effect was found, the volume excreted was replaced by sub-cutaneous injections of sterile saline. At the end of the treatment, mice were sacrificed for phenotypic analysis.

Where two headings read alike, the source gives them in different places. Square brackets hold non-standard residues; d marks the D form. Peptide text beside a SMILES is read from it.

Consider `CC[C@H](C)[C@H](NC(=O)[C@@H]1CCCN1C(=O)[C@H](CC(C)C)NC(=O)[C@@H](C)NC(=O)[C@@H](C)N)C(=O)N1CCC[C@H]1C(=O)N[C@@H](CC(C)C)C(=O)N[C@@H](CC(=O)O)C(=O)N[C@@H](CCC(N)=O)C(=O)N[C@H](C(=O)N[C@H](C)C(=O)N[C@H](C)C(N)=O)[C@@H](C)O` [SEQ ID NO:128, aaLPIPLDQTaa] (H-[dA][dA]LPIPLDQT[dA][dA]-NH2), for which the “duration of prevention of airway surface liquid hyper absorption following a single dose” value in assay [1] is reported as above 8 h. The percent survival result in assay [2] (βENaC-Tg C57BL:C3H mice, fourteen-day treatment, FIGS. 7C, 7D, 7F) was “increased percent survival”; in assay [2] (βENaC-Tg C57BL:C3H mice, once daily dosing, FIG. 7E left panel), “increased percent survival”; in assay [2] (βENaC-Tg C57BL:FVB mice, fourteen-day inhaled treatment, FIG. 7B), “more effective than inhaled SEQ ID NO:142 at increasing percent survival”.
